In publication PMC11189555, “Aryl amino acetamides prevent Plasmodium falciparum ring development via targeting the lipid-transfer protein PfSTART1” (Nature Communications, 2024):
Where “and” joins values, the source holds several entries; their conditions need not be identical. Equal values may be shown once. Read-outs that look alike come from different tables or passages of the source.

Test system: CR-N309K parasites
Experiment: Growth inhibition assay (72 h, LDH activity)
Format: cell-based, Plasmodium falciparum
Settings: for inhibition at 5 µM: read-out: NORMALISED (growth inhibition, LDH absorbance)
Protocol: Parasite growth assays with inhibitory compounds were performed as per[11] and are fully described in the Supplementary Information.
Molecular biology and transfection of P. falciparum: CRISPR method.
The full 5’ homology region of pfstart1 (either WT, N309K or N330K) was amplified from pPfSTART1-HA-2A-Neo-glmS with the same 5’ BglII primer and a new 3’ primer that replaced with PstI with SpeI and introduced a stop codon. The PCR product was then digested with BglII and SpeI and inserted into similarly digested p1.2 parasite vector2. The p1.2 vector had previously been inserted with a homology region amplified from the 3’ end of the pfstart1 gene (3’HB) to form a second homology block for double recombination. The primers used to amplify 3’HB are listed primers listed in […]
60 μg of p1.2-PfSTART1(WT/N309K/N330K) plasmid was linearised with KasI, precipitated in 3 M sodium acetate and ethanol (70% final concentration) overnight at -20°C. The DNA pellet was washed in cold 70% ethanol and resuspended in cytomix 3.
50 μ M of crRNA ( Table S 2) and 50 μM of tracRNA (Integrated DNA Technologies) were allowed to form a duplex (5 min at 95°C), and Cas9 enzyme (Integrated DNA Technologies) was added, and incubated for 20 min at room temperature 4. This crRNA -tracRNA -Cas9 mix was added to each DNA preparation and transfected to 3D7 ring parasites using the Bio -Rad Gene Pulser at 310 V and 950 μF.
Parasites containing the transfected DNA were selected using 2.5 nM WR99210 (Jacobus). Parasites lines were cloned using limiting dilution. Correct integration was tested by PCR (using primer START_5’UTR.F and START_Int.R1 , Table S 2), and sequencing was done using the primers START_3F and START_Int.R2 (Table S 2).
Growth inhibition assays. Synchronised ring-stage parasites (0.3-0.6% parasitemia, 2% haematocrit) were grown for 72 h in a serial-dilution of the compound under […]
and compound 4. Note that M-833 was first purchased from MolPort (MolPort -002-267-916) then made in-house at WEHI: the differences observed in EC50s across experiments are attributed to the different batches of M -833. For some experiments, 0, 0.25 or 2.5 mM of glucosamine (GlcN) was also added. Experiments were set up in technical duplicates or triplicates. Following a freeze -thaw cycle, lactate dehydrogenase (LDH) activity was assessed as an indicator of parasite growt h 5. 30 μL of parasite culture was incubated for 30 min in the dark with 75 μL Malstat mixture (0.1 M Tris pH 9.0, 20 g/L lactic acid, pH 7.5, 0.2% Triton-X100, 0.5 g/L acetylpyridine adenine dinucleotide (APAD, Sigma), 200 μg/mL nitroblue tetrazolium (NBT; Sigma), 1 μg/mL phenozine ethosulfate (PES; Sigma)). Absorbance was then measured at 650 nm, transformed using the formula below, plotted against the logarithm of the concentrations, and a non-linear regression (log(inhibitor) vs. response, variable slope) was calculated using GraphPad Prism to assess the half-inhibitory […]
Growth inhibition % = (1 − average(sample)− average(uRBC)) ∗ 100 […]
The DMSO samples were also used to assess growth of parasite in the presence of 0.25 and 2.5 mM GlcN (normalised by DMSO in 0 mM GlcN).
Egress, invasion & recovery assay. To measure egress, invasion and follow up recovery in the presence of different compounds, we adapted the method developed in6, using Hyp1-Nluc parasites7. These parasites episomally express the exported PEXEL protein Hyp1 (PF3D7_0113300) tagged with a NanoLuc luciferase (NLuc) and were selected with 2.5 nM WR99210 (Jacobus). Highly synchronised schizonts were obtained using ML10 (LifeArc) and sorbitol synchronisation, and Percoll-purified (the culture was gently layered over 67% Percoll (Cytiva) in RPMI, and centrifuged for 15 min at 1500 g and the schizont layer was collected and washed). In a 96-well plate, […]

## Cc1cc(Cl)c(S(=O)(=O)N2CCCC2)cc1OCC(=O)NC1CCCCC1 [M-833]
0 mM GlcN, conc 13333.3 nM
  Growth inhibition assay, NORMALISED: 96.3035 and 81.5013
0 mM GlcN, conc 40000 nM
  Growth inhibition assay, NORMALISED: 90.3753
0.25 mM GlcN, M833 dilution point 1 of 10 (starting concentration 40 uM)
  NORMALISED (growth inhibition, LDH absorbance vs DMSO and uRBC): 109.622 and 93.8958 and 89.0356
0.25 mM GlcN, M833 dilution point 2 of 10 from 40 uM start
  NORMALISED (growth inhibition, LDH absorbance vs DMSO and uRBC): 100.45 and 85.8318 and 85.1660
0.25 mM GlcN, M833 dilution point 3 of 10 from 40 uM start
  NORMALISED (growth inhibition, LDH absorbance vs DMSO and uRBC): 91.9964 and 60.0606 and 52.4793
2.5 mM GlcN, M833 dilution point 1 of 10 (starting concentration 40 uM)
  NORMALISED (growth inhibition, LDH absorbance vs DMSO and uRBC): 151.073 and 87.1969 and 79.8969
2.5 mM GlcN, M833 dilution point 2 of 10 from 40 uM start
  NORMALISED (growth inhibition, LDH absorbance vs DMSO and uRBC): 113.734 and 82.9449 and 82.5963
2.5 mM GlcN, M833 dilution point 3 of 10 from 40 uM start
  NORMALISED (growth inhibition, LDH absorbance vs DMSO and uRBC): 124.034 and 76.1318 and 75.9272
Fig 2D
  fold resistance compared to CR-WT: over 81 fold
Plasmodium falciparum, 0 mM GlcN, conc 40000 nM, read-out: Growth inhibition assay, NORMALISED
  inhibition at 40 µM: 107%
Plasmodium falciparum, 72 h, read-out: EC50 (95% confidence interval), Fig 2D, 72 h, n = 3
  EC50: 4030 nM
Plasmodium falciparum, Fig 3F, 0 mM GlcN, n = 3, read-out: EC50 M-833 (95% confidence interval)
  EC50: 4000 nM
Plasmodium falciparum, read-out: EC50 M-833 (95% confidence interval), Fig 3F, 0.25 mM GlcN, n = 3
  EC50: 2180 nM
Plasmodium falciparum, read-out: EC50 M-833 (95% confidence interval), Fig 3F, 2.5 mM GlcN, n = 3
  EC50: 768 nM
Not statistically significant
  fold reduction of EC50 on addition of 2.5 mM GlcN: 5.2 fold

## CC(C)(Nc1ccc(Cl)c(S(=O)(=O)N2CCOCC2)c1)C(=O)Nc1ccc(F)c(Cl)c1 [W-991]
0 mM GlcN, W991 at 185.185 nM
  NORMALISED (growth inhibition, LDH absorbance vs DMSO and uRBC): 14.1711 and 15.2813
0 mM GlcN, W991 at 555.556 nM
  NORMALISED (growth inhibition, LDH absorbance vs DMSO and uRBC): 55.508 and 36.7800
0 mM GlcN, W991 at 1666.67 nM
  NORMALISED (growth inhibition, LDH absorbance vs DMSO and uRBC): 87.9679 and 76.9970
0 mM GlcN, W991 at 5000 nM
  NORMALISED (growth inhibition, LDH absorbance vs DMSO and uRBC): 96.4706 and 92.1927
0.25 mM GlcN, dilution point 1 of 10, starting concentration 5 uM
  NORMALISED (growth inhibition, LDH absorbance): 94.7776
0.25 mM GlcN, dilution point 2 of 10 from starting concentration 5 uM
  NORMALISED (growth inhibition, LDH absorbance): 100.739 and 90.0516
0.25 mM GlcN, dilution point 3 of 10 from starting concentration 5 uM
  NORMALISED (growth inhibition, LDH absorbance): 80.0443 and 56.9500
0.25 mM GlcN, dilution point 5 of 10 from starting concentration 5 uM
  NORMALISED (growth inhibition, LDH absorbance): 17.9601 and 13.8403
0.25 mM GlcN, dilution point 6 of 10 from starting concentration 5 uM
  NORMALISED (growth inhibition, LDH absorbance): 8.426 and 8.7470
2.5 mM GlcN, dilution point 1 of 10, starting concentration 5 uM
  NORMALISED (growth inhibition, LDH absorbance): 83.5476
2.5 mM GlcN, dilution point 2 of 10 from starting concentration 5 uM
  NORMALISED (growth inhibition, LDH absorbance): 82.9906
2.5 mM GlcN, dilution point 3 of 10 from starting concentration 5 uM
  NORMALISED (growth inhibition, LDH absorbance): 95.6522 and 78.1705
2.5 mM GlcN, dilution point 4 of 10 from starting concentration 5 uM
  NORMALISED (growth inhibition, LDH absorbance): 71.5415 and 48.7789
2.5 mM GlcN, dilution point 5 of 10 from starting concentration 5 uM
  NORMALISED (growth inhibition, LDH absorbance): 41.502 and 22.2365
2.5 mM GlcN, dilution point 6 of 10 from starting concentration 5 uM
  NORMALISED (growth inhibition, LDH absorbance): 17.3913 and 10.0471
2.5 mM GlcN, dilution point 8 of 10 from starting concentration 5 uM
  NORMALISED (growth inhibition, LDH absorbance): 5.138 and 4.2631
2.5 mM GlcN, dilution point 9 of 10 from starting concentration 5 uM
  NORMALISED (growth inhibition, LDH absorbance): 11.3967 and 7.51
Fig 4C
  fold less susceptible than the 3D7 and CR-WT controls: around 600 fold
  fold sensitised on PfSTART1 knock-down with GlcN: 5 fold
Fig 4C, 0 mM GlcN, n = 3, read-out: EC50 W-991 (95% confidence interval)
  EC50: < 700 nM
Plasmodium falciparum, 0.25 mM GlcN, dilution point 1 of 10, starting concentration 5 uM
  inhibition at 5 µM: 101%
Plasmodium falciparum, 2.5 mM GlcN, dilution point 1 of 10, starting concentration 5 uM
  inhibition at 5 µM: 94.5%
Plasmodium falciparum, read-out: EC50 W-991 (95% confidence interval), Fig 4C, 0 mM GlcN, n = 3
  EC50: 687 nM
Plasmodium falciparum, read-out: EC50 W-991 (95% confidence interval), Fig 4C, 0.25 mM GlcN, n = 3
  EC50: 362 nM
Plasmodium falciparum, read-out: EC50 W-991 (95% confidence interval), Fig 4C, 2.5 mM GlcN, n = 3
  EC50: 137 nM
read-out: EC50 W-991 (95% confidence interval), Fig 4C, 0 mM GlcN, n = 3
  EC50: 687 nM
